Laboratory results from the NIST ThermoML archive (doi:10.1016/j.jct.2014.12.011).
Numbers after ± are expanded uncertainties.

Experiment: mn = molality of the nth substance listed, in mol/kg
Conditions: 100 kPa, Liquid, Alternating current cell with electrodes

CCCCCCCC(=O)[O-].[Na+] [sodium octanoate] + O
electrical conductivity [S/m]
Conditions | 278.15 K | 288.15 K | 298.15 K | 308.15 K | 318.15 K | 328.15 K
m1 = 0.04715 | 0.168 ± 0.0017 | 0.223 ± 0.0023 | 0.284 ± 0.0029 | 0.35 ± 0.0036 | 0.421 ± 0.0043 | 0.494 ± 0.005
m1 = 0.0899 | 0.299 ± 0.003 | 0.398 ± 0.004 | 0.508 ± 0.0051 | 0.627 ± 0.0063 | 0.754 ± 0.0076 | 0.885 ± 0.0089
m1 = 0.132 | 0.416 ± 0.0042 | 0.555 ± 0.0056 | 0.709 ± 0.0071 | 0.876 ± 0.0088 | 1.06 ± 0.011 | 1.242 ± 0.012
m1 = 0.1699 | 0.5102 ± 0.0051 | 0.6723 ± 0.0067 | 0.856 ± 0.0086 | 1.06 ± 0.011 | 1.28 ± 0.013 | 1.522 ± 0.015
m1 = 0.2149 | 0.606 ± 0.0061 | 0.797 ± 0.008 | 1.02 ± 0.01 | 1.27 ± 0.013 | 1.538 ± 0.015 | 1.845 ± 0.018
m1 = 0.2635 | 0.6914 ± 0.0069 | 0.924 ± 0.0093 | 1.18 ± 0.012 | 1.47 ± 0.015 | 1.88 ± 0.019 | 2.213 ± 0.022
m1 = 0.3059 | – | 0.976 ± 0.0098 | 1.29 ± 0.013 | 1.742 ± 0.017 | 2.106 ± 0.021 | 2.49 ± 0.025
m1 = 0.3464 | – | 1.18 ± 0.012 | 1.536 ± 0.015 | 1.913 ± 0.019 | 2.314 ± 0.023 | 2.734 ± 0.027
m1 = 0.3898 | – | 1.29 ± 0.013 | 1.67 ± 0.017 | 2.09 ± 0.021 | 2.526 ± 0.025 | 2.99 ± 0.03
m1 = 0.4368 | 1.015 ± 0.01 | 1.4 ± 0.014 | 1.811 ± 0.018 | 2.26 ± 0.023 | 2.74 ± 0.028 | 3.25 ± 0.033
m1 = 0.4813 | 1.09 ± 0.011 | 1.49 ± 0.015 | 1.934 ± 0.019 | 2.42 ± 0.024 | 2.938 ± 0.029 | 3.48 ± 0.035
m1 = 0.5288 | 1.16 ± 0.012 | 1.58 ± 0.016 | 2.06 ± 0.021 | 2.58 ± 0.026 | 3.138 ± 0.031 | 3.719 ± 0.037
m1 = 0.5785 | 1.224 ± 0.012 | 1.68 ± 0.017 | 2.19 ± 0.022 | 2.75 ± 0.028 | 3.34 ± 0.033 | 3.96 ± 0.04
m1 = 0.63 | 1.29 ± 0.013 | 1.77 ± 0.018 | 2.317 ± 0.023 | 2.912 ± 0.029 | 3.545 ± 0.035 | 4.205 ± 0.042
m1 = 0.6829 | 1.35 ± 0.014 | 1.87 ± 0.019 | 2.45 ± 0.025 | 3.08 ± 0.031 | 3.75 ± 0.037 | 4.448 ± 0.044
m1 = 0.7337 | 1.412 ± 0.014 | 1.96 ± 0.02 | 2.57 ± 0.026 | 3.236 ± 0.032 | 3.94 ± 0.04 | 4.68 ± 0.047
